Biological target: T1, APOL1 G1 Protein (Homo sapiens, UniProt O14791, I384M/S342G)
T1 sequence (O14791 28-398 S342G/I384M): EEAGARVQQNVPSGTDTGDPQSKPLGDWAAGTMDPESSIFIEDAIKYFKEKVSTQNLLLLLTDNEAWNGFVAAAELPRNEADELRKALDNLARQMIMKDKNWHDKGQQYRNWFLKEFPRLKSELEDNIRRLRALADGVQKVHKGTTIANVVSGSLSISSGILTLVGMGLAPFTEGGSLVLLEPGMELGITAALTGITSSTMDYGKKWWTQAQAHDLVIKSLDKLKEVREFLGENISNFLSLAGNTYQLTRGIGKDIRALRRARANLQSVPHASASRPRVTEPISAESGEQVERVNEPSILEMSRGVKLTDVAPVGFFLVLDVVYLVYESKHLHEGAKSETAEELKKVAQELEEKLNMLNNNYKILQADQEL
Assay: Trypanosoma brucei brucei lysis assay using APOL1 recombinant protein (AlamarBlue viability readout)
Type: cell-based
Details: Trypanosoma brucei brucei (Lister 427 VSG 221 bloodstream form) lysis by 0.05 μg/mL recombinant APOL1 G1, 16 hrs
Description: Trypanosoma brucei brucei is a blood stream parasite to which human, gorillas and baboon are immune due to the presence of the APOL1 protein in their HDL particles. The protein is uptaken by the parasite via the TbHpHb receptor located in its flagellar pocket and is bonded by the Hpr protein contained in the HDL particles which triggers the receptor endocytosis by the parasite.
Following endocytosis, the formed vesicle containing the HDL particle matures from early to late endosome, and subsequently to lysosome. The concomitant pH change in the lumen of the vesicle triggers the insertion of the APOL1 protein into the membrane of the late endosome/lysosome and hereby triggers lysosomal membrane premeabilisation and as a further downstream event, trypanosome lysis. Trypanosoma brucei brucei is sensitive to lysis by all three APOL1 variants (G0, G1, and G2).
The Trypanosoma brucei brucei lysis assay is a lysis assay of the parasite using recombinant APOL1 protein variant followed by a fluorescent detection method of viability by the addition of AlamarBlue reagent to the assay well, a general metabolic redox indicator (AlamarBlue assay).
Briefly, the AlamarBlue active compound, the resazurin, a blue, water soluble, non-toxic and cell permeable molecule, which can be followed by absorbance, is reduced by various metabolic pathways into resorufin, a red compound which can be followed by either absorbance or fluorescence. The assay allows the calculation of the percent viability (percent of living Trypanosomes remaining in each well) at the end of a lysis relative to the untreated condition by interpolation of fluorescent values (FLU) on a standard curve with a known amount of seeded trypanosome/well.
Trypanosoma brucei brucei (ATCC, Cat. No. PRA-382) • Lister 427 VSG 221 bloodstream form.
Thaw/Expansion Media (ATCC Medium 2834 Modified HMI-9 Medium)
Equipment • E1-Clip Tip pipette 12 channel adjustable 2-125 μL, Cat. No. 4672070BT • ThermoFisher MultiDrop 384, Cat. No. 5840300 • Multidrop • Agilent Bravo, Cat. No. G5409A • Bravo • SpectraMax M5
Trypanosoma brucei brucei Culture
Step 2, Day 4 • Centrifuge at 800×g for 5 minutes at room temperature. • Resuspend in 1 mL media. • Make a 1:25 fold dilution (10 μL/240 μL media). • Count on a hemocytometer (after adding parasites). • Let sit for 1-2 minutes for the parasites to settle. • Count should be approximately 100 viable motile parasites/16 grid or approximately 25×10^6 parasites/flask. • Passage the parasites by adding 1×10^6 parasites/T75 flask in 20 mL media. • Passage the parasites by adding 2.33×10^6 parasites/T175 flask in 46.6 mL media. • For every T75 flask should make enough for approximately 1.5×384 well assay plates. • For every T175 flask should make enough for approximately 3.8×384 well assay plates.
Step 3. Day 6 • Centrifuge at 800×g for 5 minutes. • Resuspend in 3 mL assay media (No phenol red, no FBS) per 75 starting flask. • Resuspend in 7 mL assay media (No phenol red, no FBS) per 175 flask • Make a 1:25 fold dilution. • Count by hemocytometer. • Every T75 flask set up should have approximately 75×10^6 parasites/flask (verify doubling time=8.7 hrs 1 hr). • Every T175 flask set up should have approximately 175×10^6 parasites/flask (verify doubling time=8.7 hrs±1 hr). • Require 46×10^6 parasites per 384 well plate (at 120,000 parasites per well).
Step 2, Day 2 • Centrifuge at 800×g for 5 minutes at room temperature. • Resuspend in 1 mL media. • Make a 1:25 fold dilution (10 L/240 μL media). • Let sit for 1-2 minutes for the parasites to settle. • Count should be approximately 100 viable motile parasites/16 grid or approximately 8×10^6 parasites per flask. • Passage the parasites by adding 1.25×10^6 parasites per T75 flask in 20 mL media. • For every T75 flask set up should have approximately 1.5×384 well assay plates. • For every T175 flask setup should have approximately 3.8×384 well assay plates. […]

Q: `O=C(CCc1c(-c2ccc(F)cc2)[nH]c2c(F)cc(F)cc12)N[C@@H]1C(=O)NC[C@@H]1O` [Compound 1, 3-[5,7-difluoro-2-(4-fluorophenyl)-1H-indol-3-yl]-N-[(3S,4S)-4-hydroxy-2-oxo-pyrrolidin-3-yl]propanamide] was tested. Which IC50 did it give?
A: < 250 nM

Q: With `O=C(CCc1c(-c2ccc(F)cc2)[nH]c2c(F)cc(F)cc12)N[C@@H]1C(=O)NC[C@H]1O` [Compound 2, 3-[5,7-difluoro-2-(4-fluorophenyl)-1H-indol-3-yl]-N-[(3S,4R)-4-hydroxy-2-oxo-pyrrolidin-3-yl]propanamide] as the compound, how does the IC50 read?
A: < 250 nM

Q: Which IC50 does the source give for `[2H]C([2H])(C(=O)N[C@@H]1C(=O)NC[C@H]1O)C([2H])([2H])c1c(-c2ccc(F)cc2)[nH]c2c(F)cc(F)cc12` [Compound 88, 2,2,3,3-tetradeutero-3-[5,7-difluoro-2-(4-fluorophenyl)-1H-indol-3-yl]-N-[(3S,4R)-4-hydroxy-2-oxo-pyrrolidin-3-yl]propanamide] here?
A: < 250 nM

Q: Which IC50 does the source give for `[2H]C(C(=O)N[C@@H]1C(=O)NC[C@H]1O)C([2H])c1c(-c2ccc(F)cc2)[nH]c2c(F)cc(F)cc12` (stereo partly drawn) [Compound 89, 2,3-dideuterio-3-[5,7-difluoro-2-(4-fluorophenyl)-1H-indol-3-yl]-N-[(3S,4R)-4-hydroxy-2-oxo-pyrrolidin-3-yl]propanamide] here?
A: < 250 nM

From patent publication US11618746B2, “Inhibitors of APOL1 and methods of using same” (Vertex Pharmaceuticals Incorporated, priority 2018, dated 2023)
